Data set [1] addresses T1, COX-1 (Ovis aries, UniProt P05979).
T1 sequence (P05979 25-600): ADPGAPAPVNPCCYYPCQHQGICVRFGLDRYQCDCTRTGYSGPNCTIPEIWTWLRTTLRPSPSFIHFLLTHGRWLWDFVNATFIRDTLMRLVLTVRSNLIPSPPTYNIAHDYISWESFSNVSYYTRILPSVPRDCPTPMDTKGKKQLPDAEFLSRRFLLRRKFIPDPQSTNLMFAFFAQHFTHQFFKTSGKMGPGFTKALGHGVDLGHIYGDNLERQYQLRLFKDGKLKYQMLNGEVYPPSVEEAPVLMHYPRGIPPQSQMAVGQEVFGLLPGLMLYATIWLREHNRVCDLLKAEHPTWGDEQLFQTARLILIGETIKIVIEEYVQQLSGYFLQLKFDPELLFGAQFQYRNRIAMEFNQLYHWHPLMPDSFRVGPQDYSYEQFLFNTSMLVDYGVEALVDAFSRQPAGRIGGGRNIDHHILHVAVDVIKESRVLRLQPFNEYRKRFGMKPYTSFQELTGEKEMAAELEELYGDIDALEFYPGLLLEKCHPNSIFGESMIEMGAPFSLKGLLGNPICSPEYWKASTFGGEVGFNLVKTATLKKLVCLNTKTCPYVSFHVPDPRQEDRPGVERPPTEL
Kind of data set: In vitro COX-1 inhibition, fluorescent inhibitor screening assay kit. The following applies: for inhibitory activity on COX-1: at a concentration of 100 μM.
Experimental: (§1) Test compounds, dissolved in DMSO, and were pre-incubated with the enzymes at 37 °C for 5 min before initiating the reaction with 1 mM arachidonic acid under light-protected conditions. The fluorescence was measured using a multi-well spectrophotometer (fluorescence plate reader). […] The percentage inhibition was calculated by comparing the absorbance values of the compounds to the vehicle control.
(§2) This protocol utilizes a colorimetric assay to measure the peroxidase activity of Prostaglandin G/H
(§3) Synthase (COX enzyme). The COX enzyme converts Arachidonic Acid (AA) to Prostaglandin G2
(§4) (PGG2), which is then reduced to Prostaglandin H2 (PGH2) by the inherent peroxidase activity.
(§5) peroxidase reaction co-oxidizes a chromogen, such as N,N,N',N'-Tetramethyl-p-phenylenediamine
(§6) (TMPD), resulting in a colored product that can be measured spectrophotometrically at 590-630 nm.
(§7) inhibition of COX enzyme by a test compound reduces the formation of this colored product, allowing
(§8) for the calculation of percentage inhibition and subsequent IC50 values.
(§9) o Ovine COX-1 (purified, commercially available)
(§10) • Substrate: Arachidonic Acid (AA). Prepare a stock solution in ethanol. Note: AA is unstable;
(§11) aliquot and store under inert gas (e.g., Argon) at -80°C.
(§12) • Cofactor: Hemin. Prepare a stock solution in DMSO.
(§13) • Chromogen: N,N,N',N'-Tetramethyl-p-phenylenediamine (TMPD) dihydrochloride.
(§14) • Assay Buffer: 100 mM Tris-HCl buffer, pH 8.0. May contain 1-5 mM EDTA and 1-2 µM
Phenol (acts as a cofactor for COX-2).
(§15) • Solvents: Dimethyl Sulfoxide (DMSO), Ethanol (absolute).
(§16) consistent across all wells (typically ≤1% final concentration).
o Keep all dilutions on ice.
(§17) o COX-1 Working Solution: Dilute ovine COX-1 in ice-cold assay buffer to a final
(§18) concentration of ~50-100 U/mL. Add Hemin to a final concentration of 1 µM.
(§19) o Note: The exact enzyme units (U) required must be determined by a preliminary activity
(§20) test to ensure the reaction is linear and within the dynamic range of the assay.
(§21) Substrate/Chromogen Solution (Prepare Fresh):
(§22) o To a tube containing assay buffer, add TMPD to a final concentration of 0.2-0.5 mM.
(§23) o Add Arachidonic Acid to a final concentration of 100 µM. Vortex gently.
(§24) o Keep this solution protected from light and on ice until use.
(§25) Assay Setup (Performed in duplicate or triplicate)

For data set [2], the target named is T2, human recombinant COX-2 (Homo sapiens, UniProt P35354).
T2 sequence (P35354 18-604): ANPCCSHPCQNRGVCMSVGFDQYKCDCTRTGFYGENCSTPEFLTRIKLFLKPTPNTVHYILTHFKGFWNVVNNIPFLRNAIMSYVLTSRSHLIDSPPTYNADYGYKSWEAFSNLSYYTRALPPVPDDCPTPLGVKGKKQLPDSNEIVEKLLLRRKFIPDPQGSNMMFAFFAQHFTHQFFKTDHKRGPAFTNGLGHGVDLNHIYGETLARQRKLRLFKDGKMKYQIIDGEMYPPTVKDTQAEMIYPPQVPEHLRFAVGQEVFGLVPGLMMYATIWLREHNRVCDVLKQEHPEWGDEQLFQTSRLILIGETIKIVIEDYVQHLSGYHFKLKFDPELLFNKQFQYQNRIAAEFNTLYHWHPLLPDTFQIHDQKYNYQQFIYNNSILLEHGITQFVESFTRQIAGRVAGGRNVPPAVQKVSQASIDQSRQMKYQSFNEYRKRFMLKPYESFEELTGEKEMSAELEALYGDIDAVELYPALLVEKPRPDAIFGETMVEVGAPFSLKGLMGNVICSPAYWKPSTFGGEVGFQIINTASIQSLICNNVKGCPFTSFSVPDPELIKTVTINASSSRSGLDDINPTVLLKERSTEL
Kind of data set: In vitro COX-2 inhibition, fluorescent inhibitor screening assay kit. The following applies: for inhibitory activity on COX-2: at a concentration of 100 μM.
Experimental: as §1, §2, §3, §4, §5, §6, §7, §8, §9, §10, §11, §12, §13, §14
Phenol (acts as a cofactor for COX-2).
as §15, §16
o Keep all dilutions on ice.
as §17, §18, §19, §20, §21, §22, §23, §24, §25

In data set [3] the test system is carrageenan-induced paw edema. Nature of the data set: In vivo carrageenan-induced paw edema. The note with it: 50 mg/kg oral, mice.
Data set [4] deals with TNF-α. Nature of the data set: ELISA of serum TNF-α in carrageenan-treated mice. Type of data set: in vivo. The following applies: 50 mg/kg; carrageenan-treated mice at 3 h; compared to the control group. As for the experimental part:
To evaluate the anti-inflammatory mechanisms of these compounds, two key chemical mediators, TNF-α and IL-6, were assessed using enzyme-linked immunosorbent assay (ELISA).
All mice were sacrificed under anesthesia using ketamine/xylazine (50/15 mg/kg). Blood was collected for the ELISA assays to determine the levels of cytokines TNF-α and IL-6 using the Rat IL6 (Interleukin 6) ELISA Kit and Rat TNFα ELISA Kit (MyBioSource, San Diego, CA, USA), in accordance with the manufacturer’s instructions. The quantitative sandwich enzyme immunoassay technique is the fundamental principle of the TNF-α assay. A microplate was pre-coated with an antibody specific for TNF-α. Standards and samples were pipetted into the wells, and the immobilized antibody bound to any TNF-α that was present. A biotin-conjugated antibody that was specific for TNF-α was introduced to the wells after any unbound substances were removed. Horseradish peroxidase (HRP) conjugated with avidin was introduced to the wells subsequent to the cleaning process. After a wash to eliminate any unbound avidin–enzyme reagent, a substrate solution was introduced to the wells, and the color developed in proportion to the quantity of TNF-α bound in the initial step. The color development was halted, and the color intensity was quantified. Additionally, the Sandwich enzyme immunoassay is the test principle utilized for IL-6. The microtiter plates included in this preparation were pre-coated with an antibody that was specific to Rat IL6. A biotin-conjugated antibody specific to Rat IL6 was then added to the appropriate microtiter plate wells along with standards or samples. Subsequently, each microplate well was incubated with avidin conjugated to horseradish peroxidase (HRP). […] The addition of sulfuric acid solution terminated the enzyme–substrate reaction, and the color change was observed spectrophotometrically at a wavelength of 450 nm ± 10 nm. The concentration of Rat IL6 in the samples was subsequently determined by comparing the OD of the samples to the standard curve.
Blood was collected immediately following the decapitation of mice, performed in accordance with the institutional animal care and use committee (IACUC) guidelines. After decapitation, whole blood was allowed to flow freely and was collected directly into EDTA and heparinized tubes. The whole blood was centrifuged at 3000× g for 10 min at 4 °C, and the plasma was carefully collected and stored at –80 °C until further analysis.
In general terms: In an ELISA, binding on a coated surface is turned into a signal by an enzyme label.

Data set [5] has as its system gastric mucosa. Nature of the data set: Histopathological examination of stomach sections (H&E).

Entries after “also recorded” stand apart in the source; their conditions may differ.

One may read the IC50 as the midpoint of a concentration-inhibition curve.

As for `CC(=O)c1ccc(NC(=O)Cn2cnc3c(cnn3-c3ccccc3)c2=O)cc1` [Compound 5l, N-(4-Acetylphenyl)-2-(4-Oxo-1-Phenyl-1,4-Dihydro-5H-Pyrazolo[3,4-d]Pyrimidin-5-yl) Acetamide], the “inhibitory activity on COX-1” value in data set [1] was “no inhibitory activity”. Moreover, the “inhibitory activity on COX-2” value in data set [2] is reported as “no inhibitory activity”.
As to `O=C(Cn1cnc2c(cnn2-c2ccccc2)c1=O)Nc1ccccc1` [Compound 5a, 2-(4-Oxo-1-Phenyl-1,4-Dihydro-5H-Pyrazolo[3,4-d]Pyrimidin-5-yl)-N-Phenyl Acetamide], in data set [1], the “inhibitory activity on COX-1” value was “no inhibitory activity”. Besides, the “inhibitory activity on COX-2” value in data set [2] is recorded as “no inhibitory activity”.
As to `COc1ccccc1NC(=O)Cn1cnc2c(cnn2-c2ccccc2)c1=O` [Compound 5h, N-(2-Methoxyphenyl)-2-(4-Oxo-1-Phenyl-1,4-Dihydro-5H-Pyrazolo[3,4-d]Pyrimidin-5-yl) Acetamide], the “inhibitory activity on COX-1” value in data set [1] is recorded as “no inhibitory activity”. In addition, the “inhibitory activity on COX-2” value in data set [2] is “no inhibitory activity”.
For `Cc1ccccc1NC(=O)Cn1cnc2c(cnn2-c2ccccc2)c1=O` [Compound 5e, 2-(4-Oxo-1-Phenyl-1,4-Dihydro-5H-Pyrazolo[3,4-d]Pyrimidin-5-yl)-N-(o-Tolyl) Acetamide], the “inhibitory activity on COX-1” value in data set [1] was “no inhibitory activity”. The “inhibitory activity on COX-2” value in data set [2] is listed as “no inhibitory activity”.
Turning to `Cc1cccc(NC(=O)Cn2cnc3c(cnn3-c3ccccc3)c2=O)c1` [Compound 5f, 2-(4-Oxo-1-Phenyl-1,4-Dihydro-5H-Pyrazolo[3,4-d]Pyrimidin-5-yl)-N-(m-Tolyl) Acetamide], the “inhibitory activity on COX-1” value in data set [1] is recorded as “no inhibitory activity”. Also, the “inhibitory activity on COX-2” value in data set [2] is recorded as “no inhibitory activity”.
Take `COc1ccc2c(c1)c(CC(=O)O)c(C)n2C(=O)c1ccc(Cl)cc1` [Indomethacin, indomethacin, reference compound]: the “Percentage of inhibition of carrageenan-induced paw edema” value in data set [3] (1 h) came to 15.89%; in data set [3] (2 h), 29.13%; in data set [3] (3 h, 50 mg/kg), 32.33%; in data set [3] (3 h, listed as indomethacin, 50 mg/kg), 32.33%.
On to `O=C(Cn1cnc2c(cnn2-c2ccccc2)c1=O)Nc1ccc([N+](=O)[O-])cc1` [Compound 5d, N-(4-Nitrophenyl)-2-(4-oxo-1-phenyl-1,4-dihydro-5H-pyrazolo[3,4-d]pyrimidin-5-yl) Acetamide], for which the “TNF-α levels in serum” value in data set [4] is “No significant differences”. The IC50 was found to be 14.1 ± 0.47 µM in data set [1] and 0.49 ± 0.017 µM in data set [2]. Besides, the COX1 %inh was determined as 0.25% in data set [1] (conc 0.01 (uM)); 1.77% in data set [1] (conc 0.1 (uM)); 8.07% in data set [1] (conc 1 (uM)); 49.5% in data set [1] (conc 10 (uM)); 76% in data set [1] (conc 100 (uM)). Moreover, the “Percentage of inhibition of carrageenan-induced paw edema” value in data set [3] (1 h) was 3.43%; in data set [3] (2 h), 21.26%; in data set [3] (3 h) it was 27.32%. Also, the “SI, in vitro COX-2 selectivity index (COX-1 IC50/COX-2 IC50)” value in data set [2] (COX-1 IC50/COX-2 IC50) was 28.73. Further, the COX2 %inh is on record as -402% in data set [2] (conc 0.01 (uM)); -301% in data set [2] (conc 0.1 (uM)); -167% in data set [2] (conc 1 (uM)); -15% in data set [2] (conc 10 (uM)); 76.6% in data set [2] (conc 100 (uM)). Moreover, the “histological structure of the gastric mucosa” value in data set [5] (stomach sections stained with H&E; 50 mg/kg) is “normal histological structure of the gastric mucosa”.
As for `Cc1ccc(NC(=O)Cn2cnc3c(cnn3-c3ccccc3)c2=O)cc1` [Compound 5g, 2-(4-Oxo-1-Phenyl-1,4-Dihydro-5H-Pyrazolo[3,4-d]Pyrimidin-5-yl)-N-(p-Tolyl) Acetamide], the “inhibitory activity on COX-1” value in data set [1] is “no inhibitory activity”. In data set [2], the “inhibitory activity on COX-2” value is reported as “no inhibitory activity”.
As to `COc1ccc(NC(=O)Cn2cnc3c(cnn3-c3ccccc3)c2=O)cc1` [Compound 5i, N-(4-Methoxyphenyl)-2-(4-Oxo-1-Phenyl-1,4-Dihydro-5H-Pyrazolo[3,4-d]Pyrimidin-5-yl) Acetamide], in data set [1], the “inhibitory activity on COX-1” value is “no inhibitory activity”. Also, the “inhibitory activity on COX-2” value in data set [2] is listed as “no inhibitory activity”.
As to `O=C(Cn1cnc2c(cnn2-c2ccccc2)c1=O)Nc1ccc(Cl)cc1` [Compound 5b, N-(4-Chlorophenyl)-2-(4-Oxo-1-Phenyl-1,4-Dihydro-5H-Pyrazolo[3,4-d]Pyrimidin-5-yl) Acetamide], in data set [1], the “inhibitory activity on COX-1” value is given as “no inhibitory activity”. In addition, in data set [2], the “inhibitory activity on COX-2” value is given as “no inhibitory activity”.
Consider `Cc1ccc(-c2cc(C(F)(F)F)nn2-c2ccc(S(N)(=O)=O)cc2)cc1` [Celecoxib, celecoxib, reference compound], for which the “Percentage of inhibition of carrageenan-induced paw edema” value in data set [3] (1 h) was 0.31%; in data set [3] (2 h) it was 44.88%; in data set [3] (3 h) it was 56.14%. In addition, in data set [5] (stomach sections stained with H&E, 50 mg/kg), the “histological structure of the gastric mucosa” value is on record as “normal gastric mucosal histology; also recorded: normal histological structure of the gastric mucosa”.
`O=C(Cn1cnc2c(cnn2-c2ccccc2)c1=O)Nc1ccc(Br)cc1` [Compound 5c, N-(4-Bromophenyl)-2-(4-Oxo-1-Phenyl-1,4-Dihydro-5H-Pyrazolo[3,4-d]Pyrimidin-5-yl) Acetamide]: in data set [1], the “inhibitory activity on COX-1” value was “no inhibitory activity”. In addition, in data set [2], the IC50 was greater than 100 µM and the “inhibitory activity on COX-2” value is recorded as “no inhibitory activity”.
